This note sets out measurements from publication PMC7650666, “Computational and In Vitro Investigation of (-)-Epicatechin and Proanthocyanidin B2 as Inhibitors of Human Matrix Metalloproteinase 1” (Biomolecules, 2020).

Experiment [1] has as its target T1, Matrix metalloproteinase 1 (MMP-1) (Homo sapiens, UniProt P03956).
T1 construct: gene MMP1; MMP-1 secreted by human fibroblast (Detroit551) cells, 54 kDa band
T1 sequence (P03956 20-469): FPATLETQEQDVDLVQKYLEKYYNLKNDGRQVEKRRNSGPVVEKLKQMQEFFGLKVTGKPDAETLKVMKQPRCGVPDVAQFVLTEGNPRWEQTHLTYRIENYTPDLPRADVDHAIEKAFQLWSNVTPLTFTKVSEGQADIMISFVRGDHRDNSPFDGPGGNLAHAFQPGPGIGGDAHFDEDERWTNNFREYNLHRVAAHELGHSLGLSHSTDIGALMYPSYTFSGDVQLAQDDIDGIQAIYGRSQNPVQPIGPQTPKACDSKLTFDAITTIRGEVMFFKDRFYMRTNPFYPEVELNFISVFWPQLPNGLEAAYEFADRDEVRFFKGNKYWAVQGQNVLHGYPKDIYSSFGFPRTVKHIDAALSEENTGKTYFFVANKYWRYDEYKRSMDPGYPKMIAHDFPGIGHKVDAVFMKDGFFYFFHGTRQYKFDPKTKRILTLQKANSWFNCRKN
As to the kind of experiment: casein zymography of protein from fibroblast culture medium preincubated with compound (reference inhibitor). The note with it: read-out: % inhibition at 1000 μg/mL. The class given is cell-based.

Experiment [2] concerns the target T1, Matrix metalloproteinase 1 (MMP-1). As to the kind of experiment: casein zymography of protein from fibroblast culture medium preincubated with compound. The class given is cell-based. The note with it: read-out: % inhibition at 1000 μg/mL.

Regarding `O=C(O[C@@H]1Cc2c(O)cc(O)cc2O[C@@H]1c1cc(O)c(O)c(O)c1)c1cc(O)c(O)c(O)c1` [epigallocatechin gallate], the inhibition at 1000 µg/mL in experiment [1] was determined as 75.6%.
Consider `Oc1cc(O)c2c(c1)O[C@H](c1ccc(O)c(O)c1)[C@H](O)[C@H]2c1c(O)cc(O)c2c1O[C@H](c1ccc(O)c(O)c1)[C@H](O)C2` [proanthocyanidin B2], for which the inhibition at 1000 µg/mL in experiment [2] was 43.4%.
Take `Oc1cc(O)c2c(c1)O[C@H](c1ccc(O)c(O)c1)[C@H](O)C2` [(-)-epicatechin]: the inhibition at 1000 µg/mL in experiment [2] was 69.2%.
